The data set relates to HaCat human keratinocytes. The data set is described as follows: Cell differentiation, immunofluorescence with anti-ERG 1-2 antibodies. It is filed as cell-based. The note with it: at 24 hours.

Where a SMILES comes first, the peptide text is derived from it.

Consider `N=C(N)NCCC[C@H](N)C(=O)NCC(=O)N[C@@H](CO)C(=O)O` [Arg-Gly-Ser] (H-Arg-Gly-Ser-OH), for which the “quantity of ERG molecules present in the cells (fluorescence intensity, cell differentiation marker)” value is recorded as “increases”.

Source of the values: patent US20060013794A1, “Cosmetic or pharmaceutical composition comprising peptides with the sequences arggly-ser” (priority 2002, published 2006).
